# Reference: patent US20180303878A1, “TREATMENT FOR INFECTION COMPOSED OF MENSTRUAL STEM CELLS” (CELLS FOR CELLS, S.P.A., priority 2015, published 2018)
# Legend:
# Type in all cases: in vivo, C57BL6/j mice
# CLP-induced sepsis [1] = assay: Survival in polymicrobial CLP-induced sepsis (Kaplan-Meier); settings: 96 hours after treatment; treatment 3 hours after CLP; MenSCs 7.5×10^5 cells/mice intra-peritoneal, Enrofloxacin 5 mg/kg
# Protocol: (§1) In vivo studies were performed at the Universidad de los Andes-Cells for Cells Animal Facility (Santiago, Chile) in accordance with the institutional guidelines for the care and use of laboratory animals in research, revised and approved by the Institutional Ethical Committee for animal experimentation. C57BL6/j mice (8 to 12 weeks old; Jackson Laboratories, Bar Harbor, Me., USA) received ad libitum access to food and water during the whole experimental procedure. CLP-induced sepsis was performed as described previously (Rittirsch D et al., Immunodesign of experimental sepsis by cecal ligation and puncture. Nat Protoc. 2009) with some modifications. Briefly, mice were anesthetized with inhaled Sevofluorane (Baxter, Guayama, Puerto Rico) by using an anesthetic vaporizer. […]
# (§2) Three hours after CLP-induced sepsis, mice were randomized and distributed into different experimental groups to receive single injections of saline (vehicle) (n=16), antibiotics (AB) (n=22), MenSCs (n=21), MenSCs+AB (n=22), MenSC CM (n=16), or MenSC CM+AB (n=22). […] For Kaplan-Meier survival curves, animals were assessed after CLP-induced sepsis every 12 hours for 4 days. […]
# Data are expressed as mean±standard error. […]
# CLP-induced sepsis [2] = assay: Blood biochemical analysis in CLP mice; settings: serum 24 hours post-surgery; sham 47.67±3.18, saline 90±21.47
# Protocol: as §1, with “modifications.” for “modifications. Briefly, mice were anesthetized with inhaled Sevofluorane (Baxter, Guayama, Puerto Rico) by using an anesthetic vaporizer.”
# as §2
# Plasma levels of blood urea nitrogen (BUN), bilirubin, alanine aminotransferase (ALT), aspartate aminotransferase (AST), alkaline phosphatase (ALP), albumin, amylase, and glucose were evaluated by using the Piccolo Xpress™ Chemistry Analyzer (Abaxis, Union City, Calif., USA) in accordance with the instructions of the manufacturer. […]
# CLP-induced sepsis [3] = assay: Bacterial numbers in blood, peritoneal cavity and spleen in CLP-induced sepsis; settings: 24 hours post-CLP, in comparison with saline group, P≤0.05
# Protocol: as §1, with “vaporizer. After a 1-cm incision was performed, the cecum was exposed and ligated in the middle portion with 5-0 dafilon suture (Braun, Rubi, Spain), punctured once with an 18-gauge needle (in order to induce high-grade sepsis), and returned to the peritoneal cavity. The abdominal incision was sutured with catgut 5-0 (Braun, Bogota, Colombia), and the skin was closed with Histoacryl (Braun).” for “vaporizer.”
# Total blood, peritoneal fluid, and homogenized spleen in sterile saline were plated in a 10-fold dilution on blood agar plates and incubated at 37° C. overnight, and the number of CFUs was determined.
# CLP-induced sepsis [4] = assay: Cytokine multiplex array evaluation in CLP mice; settings: 40 hours post-CLP, P≤0.05
# Protocol: as §1
# The levels of inflammatory cytokines-monocyte chemoattractant protein-1 (MCP-1), TNF-α, IL-6, and […]—in CLP mice serum samples were determined by using a commercial BD™ Cytometric Bead Array Mouse Inflammation Kit (BD Biosciences Pharmingen, San Diego, Calif., USA) in accordance with the instructions of the manufacturer. Analysis was carried out by flow cytometry, and the concentration (in picograms per milliliter) was determined by using FCAP Array software (BD Biosciences). The parameters were determined 24 and 40 hours after CLP surgery.
compound,measurement,setting,value
"CCN1CCN(c2cc3c(cc2F)c(=O)c(C(=O)O)cn3C2CC2)CC1 [AB, Enrofloxacin]",survival rate,CLP-induced sepsis [1],73%
same,alkaline phosphatase (ALP) concentration,CLP-induced sepsis [2],74.25±12.03 U/l
same,CFU counts in peritoneal lavage,CLP-induced sepsis [3],decreased
same,IL-6 serum levels,CLP-induced sepsis [4]; in comparison with saline group,decreased
same,levels of IL-10,CLP-induced sepsis [4]; in comparison with untreated mice,reduction
